Measured values published in patent US20260250257A1, “ANTIBACTERIAL AND SYNERGISTIC ACTIVE COMPOUND AND USE THEREOF” (EAST CHINA UNIVERSITY OF SCIENCE AND TECHNOLOGY, priority 2023, published 2026).
Values after ≈ are worked out from the molar mass of the structure shown.

Tests used:
Assay type in all cases: cell-based
[1] = system: ATCC25922 strain (Escherichia coli); test: Checkerboard antibacterial synergistic activity test with polymyxin E (FIC); set-up: key: FIC≤0.5 synergy; 0.5–1 additive; 1–2 indifferent; ≥2 antagonism; details: combined with polymyxin E
Method in brief: (§1)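 FIC values come from a microdilution checkerboard crossing polymyxin E against the test compound in MH medium, with uninoculated blanks included. Incubation lasts 16 h at 37° C. Scoring: synergy at FIC ≤0.5, additivity between 0.5 and 1, indifference between 1 and 2, antagonism at 2 or above.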

[2] = system: ATCC19606 strain (Acinetobacter baumannii); test: as above; set-up: key: FIC≤0.5 synergy; 0.5–1 additive; 1–2 indifferent; ≥2 antagonism; details: combined with polymyxin E
Method in brief: as §1

[3] = system: ATCC9027 strain (Pseudomonas aeruginosa); test: as above; set-up: key: FIC≤0.5 synergy; 0.5–1 additive; 1–2 indifferent; ≥2 antagonism; details: combined with polymyxin E
Method in brief: as §1

[4] = system: ATCC13883 strain (Klebsiella pneumoniae); test: as above; set-up: key: FIC≤0.5 synergy; 0.5–1 additive; 1–2 indifferent; ≥2 antagonism; details: combined with polymyxin E
Method in brief: as §1

[5] = system: ATCC25922 strain (Escherichia coli); test: Broth microdilution, antibacterial activity of the compound used alone; details: for MIC: read-out: Antibacterial activity of the compound of Formula I, ATCC25922
Excerpt: (§2) The broth microdilution method was used to test the antibacterial effects of the compounds of the present invention against various Gram-negative bacterial strains when used alone.

[6] = system: ATCC19606 strain (Acinetobacter baumannii); test: as above; details: for MIC: read-out: Antibacterial activity of the compound of Formula I, ATCC19606
Excerpt: as §2

[7] = system: ATCC9027 strain (Pseudomonas aeruginosa); test: as above; details: for MIC: read-out: Antibacterial activity of the compound of Formula I, ATCC9027
Excerpt: as §2

[8] = system: ATCC13883 strain (Klebsiella pneumoniae); test: as above; details: for MIC: read-out: Antibacterial activity of the compound of Formula I, ATCC13883
Excerpt: as §2

SMILES | Synergistic activity (FIC value) ATCC25922 [1] | Synergistic activity (FIC value) ATCC19606 [2] | Synergistic activity (FIC value) ATCC9027 [3] | Synergistic activity (FIC value) ATCC13883 [4] | Antibacterial activity of the compound of Formula I, ATCC25922 [5] [µg/mL] | Antibacterial activity of the compound of Formula I, ATCC19606 [6] [µg/mL] | Antibacterial activity of the compound of Formula I, ATCC9027 [7] [µg/mL] | Antibacterial activity of the compound of Formula I, ATCC13883 [8] [µg/mL] | MIC [5] [µg/mL] | MIC [6] [µg/mL] | MIC [7] [µg/mL] | MIC [8] [µg/mL]
Oc1c(Br)cc(-c2coc(N=C3NCCCN3)n2)cc1Br [Compound I-178] | 1.25 | 0.51 | 1.25 | 1.25 | 256 | 256 | 256 | 256 |  |  |  | 
CC(C)c1ccc(-c2c[nH]c(N=C3NCCCN3)n2)cc1 [Compound I-166] | 0.5 | 1.25 | 1.25 | 1.25 | 256 | 256 | 256 | 256 |  |  |  | 
COc1ccc(Oc2ccccc2-c2csc(N=C(N)N)n2)c(C)c1 [Compound I-83] | 0.27 | 0.63 | 0.04 | 0.09 | 256 | 256 | 256 | 256 |  |  |  | 
NC(N)=Nc1nc(-c2ccc3ccccn23)cs1 [Compound I-122] | 0.38 | 0.56 | 0.75 | 0.56 | 256 | 256 | 256 | 256 |  |  |  | 
CNS(=O)(=O)c1cc(-c2c[se]c(N=C3NCCCN3)n2)ccc1C [Compound I-171] | 0.5 | 0.75 | 0.56 | 0.63 | 256 | 256 | 256 | 256 |  |  |  | 
c1ccn2c(-c3coc(N=C4NCCCN4)n3)ccc2c1 [Compound I-189] | 0.5 | 0.28 | 0.63 | 0.25 | 256 | 256 | 256 | 256 |  |  |  | 
CC(C)(C)c1ccccc1-c1coc(N=C(N)N)n1 [Compound I-10] | 0.5 | 1.25 | 1.25 | 1.25 | 256 | 256 | 256 | 256 |  |  |  | 
NC(N)=Nc1nc(-c2cccc(Oc3ccccc3)c2)cs1 [Compound I-2] | 0.51 | 0.26 | 0.53 | 0.75 |  |  |  |  | 256 (≈ 825 µM) | 256 (≈ 825 µM) | 256 (≈ 825 µM) | 256 (≈ 825 µM)
NC(N)=Nc1nc(-c2cccc(C(F)(F)F)c2)c[nH]1 [Compound I-42] | 0.53 | 1.25 | 1.25 | 1.25 | 256 | 256 | 256 | 256 |  |  |  | 
CCc1oc(N=C2NCCCN2)nc1-c1c(SC)cc2cc(Cl)cc(Cl)n12 [Compound I-197] | 0.27 | 0.31 | 0.52 | 0.25 | 256 | 256 | 256 | 256 |  |  |  | 
Oc1c(I)cc(-c2nc(N=C3NCCCN3)sc2Cl)cc1I [Compound I-183] | 1.25 | 0.25 | 0.52 | 1.25 | 256 | 256 | 256 | 256 |  |  |  | 
CC(C)c1cc(-c2c[se]c(N=C(N)N)n2)cc(C(C)C)c1 [Compound I-18] | 0.39 | 0.15 | 0.62 | 0.33 | 256 | 256 | 256 | 256 |  |  |  | 
NC(N)=Nc1nc(-c2cccc(OCc3ccccc3)c2)cs1 [Compound I-8] | 1.25 | 0.25 | 0.53 | 0.53 |  |  |  |  | 256 (≈ 789 µM) | 256 (≈ 789 µM) | 128 (≈ 395 µM) | 256 (≈ 789 µM)
Fc1cc(Oc2ccc(Cl)cc2Cl)cc(-c2csc(N=C3NCCCN3)n2)c1 [Compound I-161] | 0.14 | 0.31 | 0.06 | 0.09 | 256 | 256 | 256 | 256 |  |  |  | 
NC(N)=Nc1nc(-c2cc(F)cc(Oc3ccc(Cl)cc3Cl)c2)cs1 [Compound I-100] | 0.15 | 0.02 | 0.18 | 0.13 | 128 | 256 | 256 | 256 |  |  |  | 
